Data from US12577230B2, “2-(3-pyridin-2-yl-4-quinolin-4-yl-pyrazol-1-yl)- acetamide derivatives as inhibitors of transforming growth factor-beta receptor I/ALK5” (AGOMAB SPAIN S.L.U., priority 2020, dated 2026).
pIC50: −log10 of the molar value.

Legend:
[1] = Determination of plasma stability in human plasma; format: in vitro ADME; conditions: 10 μM, 37° C.
Method: Determination of Plasma Stability of Some Compounds
Human plasma pooled from healthy donors extracted in citrate tubes was employed in the assay. Briefly, plates containing 10 μM compounds in plasma (total volume: 50 μL) were incubated at 37° C. at the different times (0, 30, 120 and 360 min). Then 100 μl Acetonitrile were added for precipitating plasma protein, and the plate was centrifuged at 46000 g for 60 min at 5° C. Supernatant was taken and analysed by UPLC/MS/MS for sample quantification. Stationary phase: Reverse phase Acquity UPLC® BEH C18 1.7 μm (2.1 mm×50 mm) (Waters). Mobile phase: 0.1% Formic acid water/0.1% formic acid in acetonitrile.
Flow: 0.6 ml/min. The chromatographic equipment employed was an UPL QSM Waters Acquity. Compound concentrations were calculated from the MS peak areas.

Human TGFβR-1 = biological target: T1, Human TGFβR-1 (Homo sapiens, UniProt P36897); experiment: In vitro enzyme assay: inhibition of TGFβR-1 (ADP-Glo kinase assay); format: biochemical; conditions: TGFβR-1 kinase 50 ng/well, 50 μM ATP, 120 min RT
T1 construct: purchased Promega V4092
T1 sequence (P36897 34-503): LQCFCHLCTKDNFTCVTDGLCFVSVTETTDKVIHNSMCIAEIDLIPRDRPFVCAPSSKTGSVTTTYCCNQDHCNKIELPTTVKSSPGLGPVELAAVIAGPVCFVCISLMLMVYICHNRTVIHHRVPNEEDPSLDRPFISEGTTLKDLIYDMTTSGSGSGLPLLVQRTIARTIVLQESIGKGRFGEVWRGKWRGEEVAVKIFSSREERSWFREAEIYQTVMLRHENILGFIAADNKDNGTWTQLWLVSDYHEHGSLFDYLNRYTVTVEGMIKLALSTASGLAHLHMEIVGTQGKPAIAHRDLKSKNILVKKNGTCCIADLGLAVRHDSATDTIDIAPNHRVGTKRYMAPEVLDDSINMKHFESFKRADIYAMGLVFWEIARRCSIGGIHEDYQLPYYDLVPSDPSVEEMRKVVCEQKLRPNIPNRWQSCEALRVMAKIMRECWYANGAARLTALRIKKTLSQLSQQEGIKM
Text: In the present application are used the following abbreviations, with the corresponding definitions: • AcOH: Acetic Acid • ACVR2B: activin A receptor, type IIB • ALKn: activin receptor-like kinase n • ATP: adenosin triphosphate • Boc2O: tert-butyl dicarbonate • Boc: tert-Butoxycarbonyl • Clint: Intrinsic clearance • DIPEA: N,N-Diisopropylethylamine • DMA: Dimethylacetamide • DMAP: 4-Dimethylaminopyridine • DMF: N,N-Dimethylformamide • DMSO: Dimethyl sulfoxide • EDCl: N-(3-Dimethylaminopropyl)-N′-ethylcarbodiimide) • Et3N: Triethylamine • EtOAc: Ethyl acetate • EtOH: ethanol • FBS: Fetal bovine serum • H: hour • HATU: 1-[Bis(dimethylamino)methylene]-1H-1,2,3-triazolo[4,5-b]pyridinium 3-oxide hexafluorophosphate • HOBT: Hydroxybenzotriazole • HPLC: High-performance liquid chromatography • ^1H-NMR: Proton nuclear magnetic resonance • K2EDTA: ethylenediaminetetracetic acid dipotassium salt • LC: Liquid chromatography • LiHMDS: Lithium bis(trimethylsilyl)amide • LLOQ: lower limit of quantification • MeCN: Acetonitrile • MeOH: Methanol • Min: minutes • MS: Mass spectroscopy • MTBE: Methyl tert-butyl ether • NBS: N-Bromosuccinimide • NaCMC: Sodium carboxymethyl cellulose • Rt: retention time • RT: room temperature • Sem: 2-(Trimethylsilyl)ethoxymethyl • TGFβ: transforming growth factor-β • THF: Tetrahydrofuran • THF:EtOH: Tetrahydrofuran:ethanol • UPLC: ultra high-performance liquid chromatography • UV: Ultraviolet Pharmacological Activity In Vitro Enzyme Assay: Inhibition of TGFβR-1 Human TGFβR-1 inhibition experiments were carried out in a white 384-microplate low flange (Corning 3572) with ADP-Glo kinase Assay Kit (Promega V9101) and TGFβR-1 Kinase Enzyme System (Promega V4092). Test compounds and standard Galunisertib (Cayman 15312), 50 ng/well TGFβR-1 kinase and 50 μM ATP were added in a final volume of 10 μL/well, using Reaction buffer supplied by kit as assay buffer. The reaction mixture was incubated in gentle shaking for 120 min at RT, after incubation of 10 μL of ADP-Glo Reagent was added and incubated in gentle shaking for 40 min at RT. 20 μL of Kinase Detection Reagent was added and plate was incubated in gentle shaking for 30 min at RT. Luminescence (1000 ms) was measured in Perkin Elmer EnSpire Multimode plate reader. Results

ALK-5 = biological target: T2, ALK-5 (Homo sapiens, UniProt P36897); experiment: Determination of the intracellular TGF-beta kinase activity (ALK-5), AlphaLISA SureFire p-SMAD3 in A549 cells; format: cell-based; conditions: A549 cell line, TGF-β2 activated, p-SMAD3(Ser423/425)
T2 construct: endogenous in cells; host or cells: A549
T2 sequence (P36897 34-503): T1 sequence (P36897 34-503)
Method: Determination of the Intracellular TGF-Beta Kinase Activity (ALK-5)
The experiments were carried out in A549 cell line. 30000 cells were seeded in 200 μl of culture medium (Sigma D6046) supplemented with L-Glutamine (Sigma G7513), Penicillin/Streptomycin (Invitrogen 11058) and FBS (Sigma F9665) on a 96 wells microplate (Becton Dickinson 353072). After 16 hours medium was changed to serum free medium. Galunisertib, as inhibitor ligand (Cayman CAY-15312) and recombinant Human TGF-β2 (R&D Systems 302-B2-002) as activator of the ALK-5, were added in their corresponding wells and incubated following the instructions of the Alphascreen AlphaLISA@SureFire® Ultra™ p-SMAD3(Ser423/425) Kit (Perkin Elmer ALSU-PSM3-A500).

Structure (SMILES): Cc1cccc(-c2nn(CC(=O)Nc3cc(F)cc(C(=O)OCCO)c3)cc2-c2ccnc3ccccc23)n1 [Comparative example 3, 2-hydroxyethyl 3-fluoro-5-(2-(3-(6-methylpyridin-2-yl)-4-(quinolin-4-yl)-1H-pyrazol-1-yl)acetamido)benzoate, reference compound]
- remaining percentage 0 min [1]: 100%
- remaining percentage 30 min [1]: 99%
- remaining percentage 120 min [1]: 96%
- remaining percentage 360 min [1]: 73%

Structure (SMILES): Cc1cccc(-c2nn(CC(=O)Nc3cc(F)cc(C(=O)OC45CCN(CC4)CC5)c3)cc2-c2ccnc3ccccc23)n1 [Example 12, quinuclidin-4-yl 3-fluoro-5-(2-(3-(6-methylpyridin-2-yl)-4-(quinolin-4-yl)-1H-pyrazol-1-yl)acetamido)benzoate]
- pIC50 (Human TGFβR-1): > 7.00

Structure (SMILES): Cc1cccc(-c2nn(CC(=O)Nc3cc(F)cc(C(=O)OCC4CC4)c3)cc2-c2ccnc3ccccc23)n1 [Comparative example 1, Cyclopropylmethyl 3-fluoro-5-(2-(3-(6-methylpyridin-2-yl)-4-(quinolin-4-yl)-1H-pyrazol-1-yl)acetamido)benzoate, reference compound]
- remaining percentage 0 min [1]: 100%
- remaining percentage 30 min [1]: 100%
- remaining percentage 120 min [1]: 88%
- remaining percentage 360 min [1]: 87%

Structure (SMILES): Cc1cccc(-c2nn(CC(=O)Nc3cncc(C(=O)OCCN(C)C)c3)cc2-c2ccnc3ccccc23)n1 [Example 2, 2-(dimethylamino)ethyl 5-(2-(3-(6-methylpyridin-2-yl)-4-(quinolin-4-yl)-1H-pyrazol-1-yl)acetamido)nicotinate]
- pIC50 (Human TGFβR-1): > 7.00

Structure (SMILES): COC(=O)c1cc(Cl)cc(NC(=O)Cn2cc(-c3ccnc4ccccc34)c(-c3cccc(C)n3)n2)c1 [Comparative example 2, methyl 3-chloro-5-(2-(3-(6-methylpyridin-2-yl)-4-(quinolin-4-yl)-1H-pyrazol-1-yl)acetamido)benzoate, reference compound]
- remaining percentage 0 min [1]: 100%
- remaining percentage 30 min [1]: 83%
- remaining percentage 120 min [1]: 69%
- remaining percentage 360 min [1]: 67%

Structure (SMILES): CCNCCOC(=O)c1cc(F)cc(NC(=O)Cn2cc(-c3ccnc4ccccc34)c(-c3cccc(C)n3)n2)c1 [Example 17, 2-(ethylamino)ethyl 3-fluoro-5-(2-(3-(6-methylpyridin-2-yl)-4-(quinolin-4-yl)-1H-pyrazol-1-yl)acetamido)benzoate]
- pIC50 (Human TGFβR-1): > 7.00

Structure (SMILES): Cc1cccc(-c2nn(CC(=O)Nc3cc(F)cc(C(=O)OCCN4CCN(C)CC4)c3)cc2-c2ccnc3ccccc23)n1 [Example 6, 2-(4-methylpiperazin-1-yl)ethyl 3-fluoro-5-(2-(3-(6-methylpyridin-2-yl)-4-(quinolin-4-yl)-1H-pyrazol-1-yl)acetamido)benzoate]
- pIC50 (Human TGFβR-1): 6.60 to 7.00
- pIC50 (ALK-5): > 6.00

Structure (SMILES): Cc1cccc(-c2nn(CC(=O)Nc3cc(F)cc(C(=O)OCCN4CC4)c3)cc2-c2ccnc3ccccc23)n1 [Example 14, 2-(aziridin-1-yl)ethyl 3-fluoro-5-(2-(3-(6-methylpyridin-2-yl)-4-(quinolin-4-yl)-1H-pyrazol-1-yl)acetamido)benzoate]
- pIC50 (Human TGFβR-1): > 7.00

Structure (SMILES): CNCCOC(=O)c1cc(F)cc(NC(=O)Cn2cc(-c3ccnc4ccccc34)c(-c3cccc(C)n3)n2)c1 [Example 15, 2-(methylamino)ethyl 3-fluoro-5-(2-(3-(6-methylpyridin-2-yl)-4-(quinolin-4-yl)-1H-pyrazol-1-yl)acetamido)benzoate]
- pIC50 (Human TGFβR-1): > 7.00
- pIC50 (ALK-5): < 6.00

Structure (SMILES): Cc1cccc(-c2nn(CC(=O)Nc3cc(F)cc(C(=O)OCCN)c3)cc2-c2ccnc3ccccc23)n1 [Example 16, 2-aminoethyl 3-fluoro-5-(2-(3-(6-methylpyridin-2-yl)-4-(quinolin-4-yl)-1H-pyrazol-1-yl)acetamido)benzoate]
- pIC50 (Human TGFβR-1): > 7.00

Structure (SMILES): Cc1cccc(-c2nn(CC(=O)Nc3ccc(C(=O)OCCN(C)C)cn3)cc2-c2ccnc3ccccc23)n1 [Example 3, 2-(dimethylamino)ethyl 6-(2-(3-(6-methylpyridin-2-yl)-4-(quinolin-4-yl)-1H-pyrazol-1-yl)acetamido)nicotinate]
- pIC50 (Human TGFβR-1): 6.60 to 7.00

Structure (SMILES): Cc1cccc(-c2nn(CC(=O)Nc3cc(F)cc(C(=O)OC4CCN(C)CC4)c3)cc2-c2ccnc3ccccc23)n1 [Example 8, 1-methylpiperidin-4-yl 3-fluoro-5-(2-(3-(6-methylpyridin-2-yl)-4-(quinolin-4-yl)-1H-pyrazol-1-yl)acetamido)benzoate]
- pIC50 (Human TGFβR-1): 6.60 to 7.00

Structure (SMILES): Cc1cccc(-c2nn(CC(=O)Nc3cc(F)cc(C(=O)OCCNC(C)C)c3)cc2-c2ccnc3ccccc23)n1 [Example 18, 2-(isopropylamino)ethyl 3-fluoro-5-(2-(3-(6-methylpyridin-2-yl)-4-(quinolin-4-yl)-1H-pyrazol-1-yl)acetamido)benzoate]
- pIC50 (Human TGFβR-1): > 7.00
- remaining percentage 0 min [1]: 100%
- remaining percentage 30 min [1]: 33.9%
- remaining percentage 120 min [1]: 11.1%
- remaining percentage 360 min [1]: 0.1%

Structure (SMILES): Cc1cccc(-c2nn(CC(=O)Nc3cc(F)cc(C(=O)O[C@@H]4CN5CCC4CC5)c3)cc2-c2ccnc3ccccc23)n1 [Example 11, (S)-quinuclidin-3-yl 3-fluoro-5-(2-(3-(6-methylpyridin-2-yl)-4-(quinolin-4-yl)-1H-pyrazol-1-yl)acetamido)benzoate]
- pIC50 (Human TGFβR-1): > 7.00

Structure (SMILES): Cc1cccc(-c2nn(CC(=O)Nc3cc(F)cc(C(=O)OCCN4CCC4)c3)cc2-c2ccnc3ccccc23)n1 [Example 13, 2-(azetidin-1-yl)ethyl 3-fluoro-5-(2-(3-(6-methylpyridin-2-yl)-4-(quinolin-4-yl)-1H-pyrazol-1-yl)acetamido)benzoate]
- pIC50 (Human TGFβR-1): 6.60 to 7.00

Structure (SMILES): Cc1cccc(-c2nn(CC(=O)Nc3cc(F)cc(C(=O)O[C@H]4CN5CCC4CC5)c3)cc2-c2ccnc3ccccc23)n1 [Example 10, (R)-quinuclidin-3-yl 3-fluoro-5-(2-(3-(6-methylpyridin-2-yl)-4-(quinolin-4-yl)-1H-pyrazol-1-yl)acetamido)benzoate]
- pIC50 (Human TGFβR-1): > 7.00

Structure (SMILES): Cc1cccc(-c2nn(CC(=O)Nc3cc(F)cc(C(=O)OCC4CCNCC4)c3)cc2-c2ccnc3ccccc23)n1 [Example 20, piperidin-4-ylmethyl 3-fluoro-5-(2-(3-(6-methylpyridin-2-yl)-4-(quinolin-4-yl)-1H-pyrazol-1-yl)acetamido)benzoate]
- pIC50 (Human TGFβR-1): 6.60 to 7.00
